Reference: PMC11700842 (The Journal of Antibiotics, 2024)
Values after ≈ are worked out from the molar mass of the structure shown. Like-named read-outs stand apart in the source and are kept apart here.

Columns and labels:
[1] = system: M. bovis BCG membrane electric potential; format: cell-based
M. bovis BCG [2] = format: cell-based; settings: analogues 100 µM, verapamil 102 µM, with glucose; for % Change in fluorescence (efflux): end of 60 min assay; for Rate of efflux (ethidium bromide): rate from 0–9 minutes
E. faecium E745 = assay: microbe, parasite or virus in culture; format: cell-based; settings: Enterococcus faecium, E745, 24 h, read-out: MIC99 E. faecium E745
M. smegmatis [3] = assay: Ethidium bromide efflux assay in M. smegmatis; format: cell-based; settings: for % Change in fluorescence (efflux) / Rate of efflux (ethidium bromide): analogues 100 µM, verapamil 102 µM, with glucose; for % Change in fluorescence (efflux): end of 60 min assay; for Rate of efflux (ethidium bromide): rate from 0–9 minutes
M. smegmatis [4] = assay: MIC determination (resazurin) against M. smegmatis; format: cell-based, M. smegmatis mc^2155; settings: Mycolicibacterium smegmatis; lowest concentration reducing growth to 1% or less; 21 h + 3 h resazurin; N = 3
M. bovis BCG [5] = format: cell-based; settings: analogues 100 µM, verapamil 102 µM, with glucose; for % Change in fluorescence (accumulation): end of 60 min assay; for Rate of accumulation (ethidium bromide): rate from 5–14 minutes
dopamine transporter [6] = format: cell-based; settings: based on IC50 from Paudel et al.
dopamine transporter [7] = system: dopamine transporter; set-up: method as in PMID 28274674; settings: human embryonic kidney 293 cells; 20 nM [3H] dopamine over 5 min at 37 °C; read-out: IC50 against the dopamine transporter; cited from earlier work
[8] = molecular target: T1, human dopamine transporter (Homo sapiens, UniProt Q01959); assay: cell-based; format: cell-based; settings: for IC50: CHO cells transfected with human dopamine transporter, 0.3 µM [3H] dopamine, 90 min, read-out: IC50 against dopamine transporter; for IC50 / inhibition at 0.1 µM: N = 3; for inhibition at 0.1 µM: CHO, dopamine transporter uptake, 100 nM
T1 construct: host or cells: Chinese hamster ovary (CHO) cells
T1 sequence (Q01959 whole entry): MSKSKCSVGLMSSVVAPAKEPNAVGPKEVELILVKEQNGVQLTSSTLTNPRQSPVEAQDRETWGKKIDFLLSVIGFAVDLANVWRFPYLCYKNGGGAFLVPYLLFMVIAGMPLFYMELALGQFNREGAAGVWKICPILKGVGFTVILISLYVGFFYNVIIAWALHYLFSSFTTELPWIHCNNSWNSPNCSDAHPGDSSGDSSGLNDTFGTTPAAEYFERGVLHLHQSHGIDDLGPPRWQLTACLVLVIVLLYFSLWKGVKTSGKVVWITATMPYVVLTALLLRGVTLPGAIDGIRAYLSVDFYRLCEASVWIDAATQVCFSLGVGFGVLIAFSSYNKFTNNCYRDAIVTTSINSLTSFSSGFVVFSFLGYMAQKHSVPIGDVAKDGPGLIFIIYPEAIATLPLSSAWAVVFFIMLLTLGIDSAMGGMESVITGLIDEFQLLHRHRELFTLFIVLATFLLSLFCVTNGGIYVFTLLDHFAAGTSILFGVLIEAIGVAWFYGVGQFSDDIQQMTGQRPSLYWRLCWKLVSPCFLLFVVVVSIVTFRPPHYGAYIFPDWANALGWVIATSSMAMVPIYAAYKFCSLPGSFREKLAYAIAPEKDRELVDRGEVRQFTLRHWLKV
Experimental: This assay was performed by Eurofins Discovery and is based on a reported method. […] Following incubation, the amount of [^3H] dopamine was quantified using a scintillation counter (Topcount, Packard). The results were expressed as a percentage inhibition relative to the control uptake of [^3H] dopamine.
In this assay, five concentrations of each analogue were tested, in triplicate, ranging from 10 µM to 100 nM (Supplementary Fig. S2).
26 Supplementary Figure S2: Dopamine transporter uptake assays monitoring
The uptake of [3H] dopamine into Chinese
28 hamster ovary cells, transfected with the human dopamine transporter, was used to […]

M. smegmatis [9] = assay: Ethidium bromide accumulation assay in M. smegmatis; format: cell-based; settings: analogues 100 µM, verapamil 102 µM, with glucose; for % Change in fluorescence (accumulation): end of 60 min assay; for Rate of accumulation (ethidium bromide): rate from 5–14 minutes
[10] = three patients with structural heart disease; cited from earlier work
Streptococcus pneumoniae = system: Streptococcus pneumoniae; set-up: method as in PMID 36982905; settings: cited from earlier work
[11] = M. bovis BCG, test compounds 100 µM, CCCP 25 µM, Fig. 3

SMILES | impact on membrane electric potential (in words) [1] | % Change in fluorescence (efflux) (M. bovis BCG [2]) | Rate of efflux (ethidium bromide) (M. bovis BCG [2]) | MIC99 (E. faecium E745) [µM] | % Change in fluorescence (efflux) (M. smegmatis [3]) | Rate of efflux (ethidium bromide) (M. smegmatis [3]) | MIC99 (M. smegmatis [4]) [µM] | % Change in fluorescence (accumulation) (M. bovis BCG [5]) [%] | Rate of accumulation (ethidium bromide) (M. bovis BCG [5]) [RFUs/min] | difference between MIC99 against M. bovis BCG and IC50 against the dopamine transporter (dopamine transporter [6]) [×] | IC50 (dopamine transporter [7]) [nM] | impact on membrane electric potential (in words) [1, 11] | IC50 [8] [nM] | inhibition at 0.1 µM [8] [%] | difference between MIC99 against M. bovis BCG and IC50 against the dopamine transporter ([8]; based on data of this study) [×] | % Change in fluorescence (accumulation) (M. smegmatis [9]) [%] | Rate of accumulation (ethidium bromide) (M. smegmatis [9]) [RFUs/min] | effect on ethidium bromide efflux (in words) (M. smegmatis [3]; 100 µM) | adverse cardiac event in phase III clinical trial [10] | activity against Streptococcus pneumoniae (in words) (Streptococcus pneumoniae)
N#CC(C#N)=NNc1cccc(Cl)c1 [CCCP, Carbonyl cyanide m-chlorophenyl hydrazone, reference compound] | greatest loss of electric potential |  |  |  |  |  |  |  |  |  |  |  |  |  |  |  |  |  |  | 
Fc1ccc(C(OCCN2CCC(Cc3ccccc3)CC2)c2ccc(F)cc2)cc1 [Compound 3] |  | –18 ± 6% | –1300 ± 200 RFUs/min | 25 (≈ 10.5 µg/mL) | –11 ± 0.1% | –1400 ± 200 RFUs/min | 50 | 67 ± 1 | 480 ± 300 | 3.7 | 6800 | greater impact than vanoxerine | 140 | 35.8 | 179 | 286 ± 1 | 3000 ± 100 |  |  | 
Fc1ccc(C(OCCN2CCNCC2)c2ccc(F)cc2)cc1 [Compound 4] |  | –16 ± 0.4% | –1000 ± 800 RFUs/min | > 100 | –57 ± 0.1% | –4500 ± 400 RFUs/min | > 100 | 46 ± 2 | 800 ± 2000 |  |  |  |  |  |  | 57 ± 6 | 2700 ± 310 |  |  | 
Fc1ccc(CN2CCN(CCOC(c3ccc(F)cc3)c3ccc(F)cc3)CC2)cc1 [Compound 5] |  | –20 ± 0.02% | –1500 ± 50 RFUs/min | > 100 | –25 ± 0.2% | –1700 ± 200 RFUs/min | > 100 | 39 ± 1 | 130 ± 130 |  |  |  |  |  |  | 175 ± 4 | 1300 ± 20 |  |  | 
Oc1ccc(CN2CCN(CCOC(c3ccc(F)cc3)c3ccc(F)cc3)CC2)cc1 [Compound 6] |  | –21 ± 0.2% | –1400 ± 330 RFUs/min | > 100 | –49 ± 0.3% | –2500 ± 200 RFUs/min | > 100 | 36 ± 3 | 140 ± 480 |  |  |  |  |  |  | 75 ± 2 | 1100 ± 40 |  |  | 
Fc1ccc(C(OCCN2CCN(CC3CCCCC3)CC2)c2ccc(F)cc2)cc1 [Compound 7] |  | –21 ± 0.1% | –1600 ± 100 RFUs/min | 100 (≈ 42.9 µg/mL) | –43 ± 0.2% | –2200 ± 60 RFUs/min | 100 | 32 ± 1 | 120 ± 90 |  |  |  |  |  |  | 94 ± 2 | 1000 ± 16 |  |  | 
O=C(c1ccccc1)N1CCN(CCOC(c2ccc(F)cc2)c2ccc(F)cc2)CC1 [Compound 8] |  | –26 ± 0.2% | –1799 ± 400 RFUs/min | > 100 | –63 ± 0.1% | –4300 ± 400 RFUs/min | > 100 | 26 ± 2 | 120 ± 460 |  |  |  |  |  |  | 37 ± 2 | 600 ± 30 |  |  | 
OC(CCN1CCN(CCOC(c2ccc(F)cc2)c2ccc(F)cc2)CC1)c1ccccc1 (stereo not drawn) [Compound 9] |  | –16 ± 0.4% | –1200 ± 600 RFUs/min | > 100 | –11 ± 0.1% | –1100 ± 110 RFUs/min | 100 | 68 ± 1 | 1100 ± 1000 |  |  | greater impact than vanoxerine | < 100 | 98.2 |  | 349 ± 1 | 4500 ± 40 |  |  | 
C#CCOC(CCN1CCN(CCOC(c2ccc(F)cc2)c2ccc(F)cc2)CC1)c1ccccc1 (stereo not drawn) [Compound 10] |  | –13 ± 0.3% | –940 ± 700 RFUs/min | > 100 | –13 ± 0.1% | –1200 ± 200 RFUs/min | 100 | 66 ± 1 | 1200 ± 700 |  |  | greater impact than vanoxerine | < 100 | 95 |  | 323 ± 7 | 4500 ± 260 |  |  | 
CCCCCCCCCC(=O)OC(CCN1CCN(CCOC(c2ccc(F)cc2)c2ccc(F)cc2)CC1)c1ccccc1 (stereo not drawn) [Compound 11] |  | –28 ± 25% | –1900 ± 400 RFUs/min | > 100 | –59 ± 0.1% | –5600 ± 160 RFUs/min | > 100 | 45 ± 1 | 400 ± 300 |  |  | no impact on the electric potential |  |  |  | 39 ± 2 | 1000 ± 160 | no effect on ethidium bromide efflux |  | 
c1ccc(CCCN2CCN(CCOC(c3ccccc3)c3ccccc3)CC2)cc1 [GBR12935, 1-[2-(Diphenylmethoxy)ethyl]-4-(3-phenylpropyl)piperazine, reference compound] |  | –16 ± 0.1% | –1300 ± 150 RFUs/min | > 100 | –37 ± 0.2% | –2000 ± 100 RFUs/min | 100 | 34 ± 2 | 160 ± 240 |  |  |  |  |  |  | 90 ± 3 | 1100 ± 40 |  |  | 
Fc1ccc(C(OCCN2CCN(CCCc3ccccc3)CC2)c2ccc(F)cc2)cc1 [vanoxerine, 1-[2-[Bis(4-fluorophenyl)methoxy]ethyl]-4-(3-phenylpropyl)piperazine, reference compound] |  | –15 ± 1% | –1100 ± 950 RFUs/min | 44 (≈ 19.8 µg/mL) | –11 ± 0.5% | –1100 ± 500 RFUs/min | 50 | 48 ± 3 | 490 ± 800 |  | […] |  |  |  |  | 299 ± 3 | 3000 ± 130 |  | caused ventricular pro-arrhythmia | inhibited Streptococcus pneumoniae
COc1ccc(CCN(C)CCCC(C#N)(c2ccc(OC)c(OC)c2)C(C)C)cc1OC (stereo not drawn) [verapamil, reference compound] |  |  |  |  |  |  |  | 52 ± 6 | 640 ± 1400 |  |  |  |  |  |  | 210 ± 7 | 2900 ± 140 |  |  | 
